The values that follow come from patent US11976280B2, “SMAC/Diablo inhibitors useful for treating cancer” (THE NATIONAL INSTITUTE FOR BIOTECHNOLOGY IN THE NEGEV LTD., priority 2017, dated 2024).

d = 2'-deoxy (DNA); r = 2'-OH (RNA)

Data set [1] deals with A549 cells-derived tumors. Kind of data set: Phospholipids, phosphatidylcholine and phosphatidylethanolamine in tumor lipid extracts. The class given is in vivo, mice. As for the experimental part: Lipids were extracted from si-NT-TTs and si-hSMAC-A-TTs as described previously (Folch, J., M. et al., 1957. J Biol Chem, 226(1): p. 497-509.). Briefly, 10-20 mg of tissue were added to CHCl3/MeOH (2:1, v/v) (7.5 mg/ml) and homogenized twice using ultrasound sonication. Water (12 μl/mg) was added to the suspension; the tube was closed with a glass cap and shaken at room temperature for 2 h at 400 rpm. The suspension was heated to 60° C. for […] and subsequently stored at 8° C. for more than 1 h in order to denature proteolipids. Undissolved material was separated by filtration through a Syringe Filter (0.4 μm pore). After evaporation of solvent, the residue was re-dissolved in CHCl3/MeOH. The suspension was filtered and the solvent was evaporated again. The weight of the extracted lipids was determined.
Phospholipids content of the lipids extracted from si-NT-TTs and si-hSMAC-A-TTs as described above was determined based on the formation of a complex of the phospholipids with ammonium ferrothiocyanate as described previously (Stewart, J. C., 1980. Anal Biochem, 104(1): p. 10-14). The absorbance at 488 nm was determined and the amounts of phospholipids were calculated using phosphatidylcholine (PC) a standard (10-100 μg). For phosphatidylcholine (PC) determination, samples of the extracted lipids were analyzed using ammonium thiocyanatocobaltate reagent as described previously (Yoshida, Y., E. et al., 1979. J Biochem, 86(3): p. 825-828). The absorbance at 316 nm was measured and PC amount was calculated using a phosphatidylcholine standard (10-100 μg).
Phosphatidylethanolamine (PE) content of the lipids extracted from si-NT-TTs and si-hSMAC-A-TTs was measured using a fluorescence-based assay as described previously (Jae-Yeon Choi et al. 2018. J. Biol. Chem 293, 1493-1503). Briefly, samples of lipid extracted from tumors as described above were dissolved in chloroform and after then chloroform was evaporated under gas nitrogen. The dried extract was then re-suspended in 0.8 mM Triton X-100. To 20 μl of lipid samples, reaction mixture including 50 μl reaction buffer (80 mM NaCl, 2 mM KPO4, pH 7.4), 30 μL H2O and 12.5 μl borate buffer (100 mM boric acid, NaCl 75 mM, sodium tetraborate 25 mM, pH, 9) were added and placed in 96 well plate and mixed well. 12.5 μl of 100 μM distyrylbenzene-bis-aldehyde (DSB-3), kindly provided by Prof. Uwe Bunz, (Organisch-Chemisches Institute, Heidelberg, Germany) prepared in 10 mM KH2PO4, pH 7.4 were then added. After 2 h of incubation in dark with shaking at 100 rpm, fluorometric detection of PE was carried out at λex=403 nm, λem=508 nm, using a plate reader. A standard curve using purified PE was carried out in parallel.
The amounts of total phospholipids and PC in si-NC-TTs and si-SMAC-A-TTs lipid extracts were analyzed (FIG. 10F). […]

The test system of data set [2] is MDA-MB-231 cell xenografts. Kind of data set: MDA-MB-231 breast cancer xenograft in nude mice. The class given is in vivo. The note with it: 700 nM. As for the experimental part:
FIGS. 5A-5G depict that si-hSMAC-A inhibited cell growth in vitro and tumor growth of breast cancer xenografts: (FIG. A) MDA-MB-231 cells were transfected with si-NT (50 nM) or si-hSMAC-A (100 nM) and analyzed for cell growth at the indicated time using the SRB method (n=3) (Control (●), si-NT (◯), si-hSMAC-A (▴); (FIG. 5B) MDA-MB-231 cells were transfected with si-NT or si-hSMAC-A and at the indicated time cells were harvested and analyzed for SMAC/Diablo levels by immunoblotting. (3-actin was used as a loading control; (FIG. 5C) MDA-MB-231 cells (3×10^6 cells/mouse) were inoculated into nude mice. Tumor volumes were monitored (using a digital caliper) and on day 18, the mice were divided into two groups (n=8 each) with each mouse in the group containing a tumor with a volume between 60 and 100 mm^3 and similar average volumes measured per group. The two mice groups were subjected to the following treatments: Xenografts were injected with si-NT (●, 350 nM) or si-hSMAC-A (▴, 700 nM). (FIG. 5D) Represents photomicrograph of dissected tumors from mouse MDA-MB-231 cell xenografts treated with si-NT or si-hSMAC-A; (FIG. 5E) Bar-graph represents dissected tumors weight from MDA-MB-231 cell xenografts; calculated average tumor volumes are presented as means±SEM, ***P<0.001 (FIG. 5F, FIG. 5G) Dissected tumors were subjected to immunohistochemistry. […]

As to “si-hSMAC-A: siRNA to human SMAC/Diablo; sense 5′AAGCGGUGUUUCUCAGAAUUGtt3′ (SEQ ID NO:20), antisense 5′AACAAUUCUGAGAAACCCGCtt3′ (SEQ ID NO:21) (sense AAGCGGUGUUUCUCAGAAUUGTT; antisense AACAAUUCUGAGAAACCCGCTT; sense: sugars from the 5' end r21 d2, backbone not given here; antisense: sugars from the 5' end r20 d2, backbone not given here)”, in data set [1] (relative to si-NT-TTs), the “decrease in phospholipids and specifically PC content” value is on record as 40-50%; the “increase in phosphatidylethanolamine (PE) levels” value amounted to 2 fold. In data set [1] (tumor lipid extracts), the “decrease in PC” value is 37% and the “decrease in total phospholipids” value amounted to 47%. Further, the “tumor growth of breast cancer xenografts” value in data set [2] is reported as “inhibited”.
